{"source": "EPA's ToxValDB 9.5 (doi:10.2903/j.efsa.2017.4718)", "key": {"Sus scrofa": {"test_system": "Sus scrofa", "settings": "subchronic; duration: 3 months; oral; diet; Not specified; food consumption"}, "Neovison vison": {"test_system": "Neovison vison", "settings": "short-term; duration: 28 days; oral; diet; F; food consumption"}, "Gallus gallus": {"test_system": "Gallus gallus", "settings": "subchronic; duration: 5 weeks; oral; diet; M; Chicken; no effects"}, "Oryctolagus sp.": {"test_system": "Oryctolagus sp.", "settings": "short-term; duration: 21 days; oral; diet; M; no effects"}, "Meleagris sp.": {"test_system": "Meleagris sp.", "settings": "subchronic; duration: 12 weeks; oral; feed; M; no effects"}, "Ovis sp.": {"test_system": "Ovis sp.", "settings": "short-term; duration: 28 days; oral; diet; food consumption"}, "Felidae": {"test_system": "Felidae", "settings": "short-term; duration: 14 days; oral; diet; Cat; body weight"}, "Anatidae": {"test_system": "Anatidae", "settings": "not reported; oral; feed; no effects"}, "Cyprinus carpio": {"test_system": "Cyprinus carpio", "settings": "subchronic; duration: 6 weeks; oral; feed; histopathology: nonneoplastic"}, "Equus caballus": {"test_system": "Equus caballus", "settings": "subchronic; duration: 40 days; no effects"}, "Canidae": {"test_system": "Canidae", "settings": "short-term; duration: 14 days; oral; diet; Dog Other; body weight"}}}
{"smiles": "CC1=C[C@H]2O[C@@H]3[C@H](O)C[C@](C)([C@@]2(CO)[C@H](O)C1=O)[C@@]31CO1", "note": "[Vomitoxin]", "values": [{"measurement": "NOAEL", "setting": "Sus scrofa", "result": 0.7, "unit": "mg/kg-day"}, {"measurement": "NOAEL", "setting": "Neovison vison", "result": 1.18, "unit": "mg/kg-day"}, {"measurement": "NOAEL", "setting": "Gallus gallus", "result": 5, "unit": "mg/kg-day"}, {"measurement": "NOAEL", "setting": "Oryctolagus sp.", "result": 4.3, "unit": "mg/kg-day"}, {"measurement": "NOAEL", "setting": "Meleagris sp.", "result": 6.5, "unit": "mg/kg"}, {"measurement": "NOAEL", "setting": "Ovis sp.", "result": 16, "unit": "mg/kg-day"}, {"measurement": "LEL", "setting": "Mus musculus; chronic, duration: 2 years, immunology", "result": "≥ 0.0016", "unit": "mg/kg-day"}, {"measurement": "NOAEL", "setting": "Mus musculus; chronic, duration: 2 years, oral, diet, M/F, B6C3F1, food consumption", "result": 0.1, "unit": "mg/kg-day"}, {"measurement": "NOAEL", "setting": "Mus musculus; developmental, development", "result": 0.5, "unit": "mg/kg-day"}, {"measurement": "NOAEL", "setting": "Mus musculus; reproduction developmental, oral, diet, M/F, reproduction", "result": 0.38, "unit": "mg/kg-day"}, {"measurement": "NOAEL", "setting": "Mus musculus; short-term, duration: 14 days, oral, diet, M/F, BALB/cAnCr, hematological", "result": 0.1, "unit": "mg/kg-day"}, {"measurement": "NOAEL", "setting": "Felidae", "result": 6, "unit": "mg/kg-day"}, {"measurement": "NOAEL", "setting": "Anatidae", "result": 7, "unit": "mg/kg"}, {"measurement": "NOAEL", "setting": "Cyprinus carpio", "result": 0.6, "unit": "mg/kg"}, {"measurement": "NOAEL", "setting": "Bovidae; chronic, duration: 126 days, oral, diet, food consumption", "result": 10, "unit": "mg/kg-day"}, {"measurement": "NOAEL", "setting": "Bovidae; chronic, duration: 166 days, oral, diet, food consumption", "result": 18, "unit": "mg/kg-day"}, {"measurement": "NOAEL", "setting": "Bovidae; subchronic, duration: 13 weeks, F, no effects", "result": 5.24, "unit": "mg/kg-day"}, {"measurement": "NOAEL", "setting": "Equus caballus", "result": 36, "unit": "mg/kg"}, {"measurement": "NOAEL", "setting": "Canidae", "result": 4, "unit": "mg/kg-day"}]}
